Data published in patent US6958321B2, “Isolation, characterization, cloning and use of a mushroom lectin” (The Regents of the University of Michigan, priority 2001, dated 2005).

What was measured:
[1] = test system: immobilized MOA; experiment: Binding to MOA-Sepharose 4B affinity column; design: species or system Marasmius oreades; conditions: washed with PBS, eluted with 20 mM diaminopropane
Excerpt: Further insight into the carbohydrate specificity of MOA was obtained by using immobilized MOA. Immobilization of MOA on a variety of supports is contemplated. In one embodiment, MOA is immobilized on a matrix that can be used in an affinity column (see below). In some embodiments, the matrix comprises Sepharose 4B beads. In some Embodiments, the MOA-conjugated Sepharose 4B beads are packed in a column for binding and affinity isolation and purification studies. Briefly, the MOA-Sepharose column is loaded with glycan, glycoconjugate or serum sample to be tested, then washed with an appropriate buffer (including but not limited to PBS). Bound components are eluted with a suitable elution buffer (including but not limited to 1,3-diaminopropane in NaCl), and the collected fractions are analyzed for the presence of protein or glycan (see Example 6 below). The fractions containing the bound components (eluted as described herein) can be pooled and concentrated.
MOA was immobilized on cyanogen bromide-activated Sepharose 4B as follows. 1.5 g of cyanogen bromide-activated Sepharose 4B was allowed to swell in 100 ml of 1 mM HCl solution for 30 min. The supernatant was removed and the swollen beads (6 ml) were filtered on a sintered funnel, washed several times with 100 ml of 1 mM HCl and finally with 20 ml of 0.1 M sodium bicarbonate buffer, pH 8.3, containing 0.5 M sodium chloride. The beads were quickly transferred to a plastic bottle containing 16.2 mg MOA in the same buffer (10 ml) containing 0.2 M lactose. The plastic bottle was shaken at room temperature for 6 hr and at 4° C. overnight. The beads were filtered on a sintered glass funnel, washed with the coupling buffer, and then shaken in 1 M ethanolamine (12 ml) at room temperature for 2.5 hr to cap all of the unreacted iminocarbonate groups. The beads were filtered, washed alternately with the coupling buffer then sodium acetate buffer (0.1 M, pH 4.0 containing 0.5 M NaCl) four times. A column (1×7 cm) packed with the beads was finally washed with PBS containing 0.04% sodium azide. The beads contained 2.3 mg MOA per ml Sepharose 4B, based on MOA remaining in solution.
In order to assess the binding of various glycans, glycoconjugates and serum samples to MOA-Sepharose, the following general procedure was used. The MOA-Sepharose column was loaded with glycan, glycoconjugate or serum sample (0.6-5 ml) and washed with PBS (15 ml). The bound components were eluted with 20 mM 1,3-diaminopropane in 0.15 M NaCl (15 ml). The fractions collected (1 ml) were neutralized with 1 M phosphoric acid (approximately 16 μl), and analyzed by either absorbance at 280 nm for protein, or by phenol-sulfuric acid assay, as described by Dubois et al. [Anal. Chem. 28: 350 (1956)] for the glycan. The column was finally washed thoroughly with PBS. The fractions containing the bound components were pooled and concentrated by Amicon ultrafiltration (Millipore Corp., Bedford, Mass.) using a membrane (YM10) of 10,000 molecular weight cut-off.

[2] = test system: MOA; experiment: Quantitative precipitation assay with MOA; format: binding, Marasmius oreades; conditions: 20 μg MOA, PBS pH 7.2, 48 hr at 4° C.
Procedure: In other embodiments, blood group specificity of MOA is determined by quantitative precipitation assays. Quantitative microprecipitation assays with soluble cyst blood group substances and inhibition of precipitation by sugar haptens were performed as described in Mo et al., [J. Biol. Chem. 275:10623 (2000)].
For quantitative precipitation assays, 20 μg of MOA and increasing amounts of glycoprotein or polysaccharide were used in a total volume of 120 to 200 μL, all in PBS/0.15 M NaCl. Quantitative carbohydrate hapten inhibition assays were conducted by adding increasing amounts of haptens to a mixture of MOA (20 μg) and type B blood group substance (5.0 μg). The reactions were incubated at 37° C. for an hour and then at 4° C. for 48 hours followed by centrifugation of the precipitates, washing, and determination of protein by the Lowry method [Lowry, O. H. et al., J. Biol. Chem. 193, 265-275 (1951)].
Varying amounts of blood group substances from 0 to 200 μg were incubated with 20 μg of MOA in a total volume of 150 μl of PBS (pH 7.2). After 48 hr at 4° C., the amounts of protein precipitated were quantified as described above. Solid squares indicate group A substance, solid circles indicate group B substance, and solid triangles indicate group O substance.
Various amounts of glycoconjugates, ranging from 0 to 100 μg were incubated with 20 μg of lectin in a total volume of 150 μl of PBS (pH 7.2). After 48 hr at 4° C., the amounts of protein precipitated were quantified, as described above. Solid circles indicate MOA interaction with laminin, solid crosses indicate MOA interaction with bovine thyroglobulin, solid squares indicate MOA interaction with C. alata galactomannan, solid triangles indicate MOA interaction with pigeon ovalbumin, open circles indicate MOA interaction with Ga1NAcα1,3Ga1β-polyacrylamide, open squares indicate GS I-B4 interaction with pigeon ovalbumin and closed inverted triangles indicate GS I-B4 interaction with Ga1NAcα1,3Ga1β-polyacrylamide.

[3] = molecular target: T1, Asialofetuin (UniProt P12763 19-359, desialylated glycans with terminal Gal-beta-1,4-GlcNAc); experiment: affinity chromatography on MOA-Sepharose 4B, PBS wash then elution with 20 mM 1,3-diaminopropane in 0.15 M NaCl, A280 of 1 ml fractions
T1 sequence (looked up): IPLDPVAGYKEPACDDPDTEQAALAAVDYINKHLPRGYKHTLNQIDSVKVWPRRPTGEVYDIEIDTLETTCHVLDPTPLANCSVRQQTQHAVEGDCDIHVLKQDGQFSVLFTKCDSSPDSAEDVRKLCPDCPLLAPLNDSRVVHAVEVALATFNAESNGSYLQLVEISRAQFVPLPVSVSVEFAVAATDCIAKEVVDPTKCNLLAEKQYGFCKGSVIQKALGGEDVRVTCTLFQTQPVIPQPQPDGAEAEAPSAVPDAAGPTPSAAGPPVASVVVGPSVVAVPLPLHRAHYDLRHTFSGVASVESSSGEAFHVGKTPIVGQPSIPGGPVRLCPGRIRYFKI

[4] = molecular target: T2, alpha-Galactosidase-digested alpha2-macroglobulin glycoprotein (from volunteer 4) (human, UniProt P01023 24-1474, terminal alpha-galactose removed with alpha-galactosidase); experiment: agar gel diffusion, precipitin
T2 construct: mature; also called alpha-Galactosidase-digested glycoprotein from volunteer 4; treated fractions containing principally alpha2-macroglobulin
T2 sequence (looked up): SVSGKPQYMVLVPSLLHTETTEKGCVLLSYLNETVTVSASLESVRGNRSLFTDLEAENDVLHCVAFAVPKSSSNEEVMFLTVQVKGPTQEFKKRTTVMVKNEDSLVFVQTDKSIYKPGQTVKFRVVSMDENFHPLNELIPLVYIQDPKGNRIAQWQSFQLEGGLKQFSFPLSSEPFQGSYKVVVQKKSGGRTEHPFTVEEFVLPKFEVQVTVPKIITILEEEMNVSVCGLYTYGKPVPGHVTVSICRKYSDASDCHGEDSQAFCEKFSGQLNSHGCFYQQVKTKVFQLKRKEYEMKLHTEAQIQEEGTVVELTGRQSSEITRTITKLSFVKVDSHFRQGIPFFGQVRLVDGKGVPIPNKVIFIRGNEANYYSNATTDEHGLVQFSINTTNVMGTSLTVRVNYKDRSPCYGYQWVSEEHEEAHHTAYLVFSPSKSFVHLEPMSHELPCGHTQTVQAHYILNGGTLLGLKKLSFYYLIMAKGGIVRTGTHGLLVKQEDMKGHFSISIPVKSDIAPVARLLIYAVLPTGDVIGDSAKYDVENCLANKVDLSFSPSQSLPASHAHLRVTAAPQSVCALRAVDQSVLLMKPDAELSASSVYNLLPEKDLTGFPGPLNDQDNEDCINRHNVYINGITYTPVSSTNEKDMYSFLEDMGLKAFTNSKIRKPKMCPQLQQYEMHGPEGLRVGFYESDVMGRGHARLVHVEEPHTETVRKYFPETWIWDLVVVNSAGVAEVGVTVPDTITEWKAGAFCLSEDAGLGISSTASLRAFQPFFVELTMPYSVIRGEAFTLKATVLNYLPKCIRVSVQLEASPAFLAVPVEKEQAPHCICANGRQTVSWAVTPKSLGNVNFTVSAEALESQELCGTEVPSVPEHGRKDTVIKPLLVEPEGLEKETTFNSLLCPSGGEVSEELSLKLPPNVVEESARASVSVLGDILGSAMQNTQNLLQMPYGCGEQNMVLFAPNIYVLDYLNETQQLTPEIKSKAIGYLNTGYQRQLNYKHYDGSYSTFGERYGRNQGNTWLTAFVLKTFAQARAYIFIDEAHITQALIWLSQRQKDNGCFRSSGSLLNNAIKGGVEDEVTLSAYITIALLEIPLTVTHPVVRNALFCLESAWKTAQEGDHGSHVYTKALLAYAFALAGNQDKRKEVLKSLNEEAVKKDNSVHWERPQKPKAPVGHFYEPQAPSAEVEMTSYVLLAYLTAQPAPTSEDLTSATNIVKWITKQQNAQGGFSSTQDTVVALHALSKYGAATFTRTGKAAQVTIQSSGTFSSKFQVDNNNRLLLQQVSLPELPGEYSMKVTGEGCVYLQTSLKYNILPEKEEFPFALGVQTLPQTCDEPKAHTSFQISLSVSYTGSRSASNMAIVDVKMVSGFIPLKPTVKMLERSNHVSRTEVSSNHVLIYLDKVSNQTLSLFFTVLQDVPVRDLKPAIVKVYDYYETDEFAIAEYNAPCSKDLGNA

[5] = Solubility and activity of salt-free lyophilisates; format: physicochemical
Procedure: Purification of recombinant MOA and native intact MOA-Recombinant MOA was purified from the soluble fraction by absorption on a column of melibiose-Sepharose and elution by lactose. Further purification was carried out on an affinity column of Synsorb B. Except for the diaminopropane elution, all affinity purifications were carried out in PBS, pH 7.2, containing 1.25 mM EDTA. After purification, lectin solutions were dialyzed against distilled water and lyophilized. […] Intact native MOA was prepared with a purification procedure (Example 2) that utilized a protease inhibitor cocktail (product P8215, Sigma, St. Louis, Mo.) which was added at the level of 0.1 ml/100 ml extract buffer (instead of phenylmethylsulfonyl fluoride), all buffers lacked Ca^++ and contained 1.25 mM EDTA, and the initial extraction and ammonium sulfate fractionations were carried out under an atmosphere of argon.

Molecule: laminin: Laminin purified from the EHS sarcoma, with Galα1,3Galβ1,4GlcNAc end groups
- binding to MOA-Sepharose column [1]: bound tightly
- precipitation with MOA [2]: reacted strongly

Molecule: Galactomannan
- binding to MOA-Sepharose column [1]: failed to bind
- precipitation with MOA [2]: did not precipitate

Molecule: bovine thyroglobulin: bovine thyroglobulin, with Galα1,3Galβ1,4GlcNAc end groups
- binding to MOA-Sepharose column [1]: bound tightly
- precipitation with MOA [2]: reacted strongly

B1: Intact native Marasmius oreades agglutinin (MOA) prepared by the method of Example 2 (other)
chain: MSLRRGIYHIENAGVPSAIDLKDGSSSDGTPIVGWQFTPDTINWHQLWLAEPIPNVADTFTLCNLFSGTYMDLYNGSSEAGTAVNGWQGTAFTTNPHQLWTIKKSSDGTSYKIQNYGSKTFVDLVNGDSSDGAKIAGWTGTWDEGNPHQKWYFNRMSVSSAEAQAAIARNPHIHGTYRGYILDGEYLVLPNATFTQIWKDSGLPGSKWREQIYDCDDFAIAMKAAVGKWGADSWKANGFAIFCGVMLGVNKAGDAAHAYNFTLTKDHADIVFFEPQNGGYLNDIGYDSYMAFY
modifications: blocked N-terminus (possibly N-acetyl)
notes: also called native MOA; immobilized MOA
- binding result [3]: no binding

B2: Ulex europaeus I lectin (other, UniProt P22972 1-243, looked up)
chain: SDDLSFKFKNFSQNGKDLSFQGDASVIETGVLQLNKVGNNLPDETGGIARYIAPIHIWNCNTGEVASFITSFSFFMETSANPKAATDGLTFFLAPPDSPLRRAGGYFGLFEDTKDNDSSYQTVAVEFDTIGSPVNFDDPGFPHIGIDVNRVKSINAERWNKRYGLNNVANVEIIYEASSKTLTASLTYPSDQTSISVTSIVDLKEILPEWVSVGFSGGTYIGRQATHEVLNWYFTSNLINTNS
notes: also called Ulex I
- binding result [4]: binds

B3: Lotus lectin (other, UniProt P19664 1-240, looked up)
chain: VSFNYTEFKDDGSLILQGDAKIWTDGRLAMPTDPLVNNPKTTRSAGRALYATPVPIWDSATGNVASFVTSFNFLFVIRELKYTPTDGLVFFLAPVGTEIPSGSTGGFLGIFDGSNGFNQFVAVEFDSYHNIWDPKSLRSSHVGIDVNSIMSLKAVNWNRVSGSLEKATIIYDSQTNILSVVMTSQNGQITTIYGTIDLKTVLPEKVSVGFSATTGNPEREKHDIYSWSFTSTLKEPEEQA
- binding result [4]: no binding

B4: Recombinant MOA: MOA expressed in E. coli from a pT7 vector and affinity purified (protein)
chain: MSLRRGIYHIENAGVPSAIDLKDGSSSDGTPIVGWQFTPDTINWHQLWLAEPIPNVADTFTLCNLFSGTYMDLYNGSSEAGTAVNGWQGTAFTTNPHQLWTIKKSSDGTSYKIQNYGSKTFVDLVNGDSSDGAKIAGWTGTWDEGNPHQKWYFNRMSVSSAEAQAAIARNPHIHGTYRGYILDGEYLVLPNATFTQIWKDSGLPGSKWREQIYDCDDFAIAMKAAVGKWGADSWKANGFAIFCGVMLGVNKAGDAAHAYNFTLTKDHADIVFFEPQNGGYLNDIGYDSYMAFY
- solubility of salt-free lyophilisates ([5]; distilled water or buffer): readily soluble
- agglutinating activity after lyophilisation ([5]; redissolved lyophilisates): retention of full agglutinating activity
